Results reported in US11690852B2, “Reduction of the incidence or recurrence of breast cancer in postmenopausal women treated with intravaginal sex steroid precursor” (Endorecherche, Inc., priority 2020, dated 2023).
“Also recorded” adds a separate entry of the source.

Tests used:
[1] = test system: breast cancer; assay: Retrospective cohort analysis of claims data: 1-year incidence of breast cancer (Objective A); assay type: in vivo, women
Excerpt: (§1) We set out to assess the 1-year incidence rate of breast cancer among women treated with prasterone compared to matched controls of untreated VVA women (Objective A). We also assessed the 1-year recurrence rate of breast cancer among women treated with prasterone with a history of breast cancer compared to matched controls of untreated VVA women (Objective B).
(§2) In order to evaluate whether total exposure to prasterone in the follow-up window alters the results of the primary objectives A and B, we used sensitivity analyses to stratify patients based on cumulative days of supply.
(§3) This retrospective cohort analysis was based on claims data from the Integrated Dataverse (IDV) database from Symphony Health Solutions. Data included in the analysis spanned a 5-year period from February 2015 through January 2020. For both objectives, the index date was defined as the first prasterone prescription fill date for treated women and as the initial VVA diagnosis date for untreated women (FIG. 1). Data were included from women who were at least 45 years of age and had at least one year of data available before and after the index date. Women treated with vaginal estrogen or ospem ifene were excluded. History of breast cancer prior to the index date was assessed. Before matching, 47,395 patients with at least one prescription of intravaginal prasterone (6.5 mg suppository) filled and no history of breast cancer were included and 2,986 with a history of breast cancer. Before matching again, 669,623 women were included in the pool of untreated VVA patients without a history of breast cancer, and 53,896 with a history of breast cancer (FIG. 2).
(§4) To ensure a balanced risk profile across treatment groups the women treated with prasterone were matched with a 1:1 ratio to untreated women based on the following parameters (FIG. 3): • Calendar year • Age • Prior to the index date: • Cancer diagnosis • Breast cancer diagnosis • Use of chemotherapy • Family history of breast cancer • Mammography • Use of estrogen therapy • Obesity and hyperlipidemia • Assessed during the 12 months prior to the index date • Charlson Elixhauser comorbidity index
(§5) Primary objectives A and B included all women meeting the inclusion criteria and having at least one prescription of prasterone filled. We then set minimum exposure thresholds to stratify patients based on the length of exposure. Thresholds were set at least 90 or 180 days of supply. Incidence (objective A) and recurrence (objective B) analyses were conducted in these new groups.

[2] = test system: breast cancer; assay: Retrospective cohort analysis of claims data: 1-year recurrence of breast cancer in women with a history of breast cancer (Objective B); assay type: in vivo
Excerpt: as §1, §2, §3, §4, §5

[3] = test system: breast intraepithelial neoplasia; conditions: 5 mg/d for 3 years; 55% of women menopaused; cited from earlier work
[4] = test system: breast cancer; conditions: postmenopausal women; testosterone supplements; cited from earlier work
[5] = all ages (≥45 years old), any days of supply
[6] = minimum exposure threshold either 90 days or 180 days of supply

C[C@]12CC[C@H](O)CC1=CC[C@@H]1[C@@H]2CC[C@]2(C)C(=O)CC[C@@H]12 [Intravaginal prasterone, dehydroepiandrosterone]
% of incidence of breast cancer ([1]; 45 to 54 years old): 0.34%
incidence ratio (prasterone / untreated VVA) ([1]; 45 to 54 years old): 0.85
% of incidence of breast cancer ([1]; 55 to 64 years old): 0.37%
incidence ratio (prasterone / untreated VVA) ([1]; 55 to 64 years old): 0.87
% of incidence of breast cancer ([1]; 65 years old and older): 0.58%
incidence ratio (prasterone / untreated VVA) ([1]; 65 years old and older): 1.03
incidence ratio (prasterone / untreated VVA) [1, 5]: 0.89
% of incidence of breast cancer ([1]; all ages (≥45 years old), any days of supply, 1-year, 6.5 mg suppository): 0.39%
% of incidence of breast cancer ([1]; at least 90 days of supply): 0.28%
incidence ratio (prasterone / untreated VVA) ([1]; at least 90 days of supply): 0.55
% of incidence of breast cancer ([1]; at least 180 days of supply): 0.25%
incidence ratio (prasterone / untreated VVA) ([1]; at least 180 days of supply): 0.48
incidence of breast cancer compared to the untreated VVA group (in words) ([1]; at least one prescription filled, all ages and age groups 45-54, 55-64, 65+): no statistically significant difference; also recorded: no statistical difference
incidence of breast cancer compared to the untreated VVA groups (in words) [1, 6]: significant reduction
% of recurrence of breast cancer ([2]; 45 to 54 years old): 41.63%
recurrence ratio (prasterone / untreated VVA) ([2]; 45 to 54 years old): 0.84
% of recurrence of breast cancer ([2]; 55 to 64 years old): 31.42%
recurrence ratio (prasterone / untreated VVA) ([2]; 55 to 64 years old): 0.82
% of recurrence of breast cancer ([2]; 65 years old and older): 32.77%
recurrence ratio (prasterone / untreated VVA) ([2]; 65 years old and older): 0.91
recurrence ratio (prasterone / untreated VVA) [2, 5]: 0.85
% of recurrence of breast cancer ([2]; all ages (≥45 years old), any days of supply, history of breast cancer): 34.21%
Recurrence analysis: % of incidence ([2]; at least 90 days of supply): 30.48%
recurrence ratio (prasterone / untreated VVA) ([2]; at least 90 days of supply): 0.83
Recurrence analysis: % of incidence ([2]; at least 180 days of supply): 30.29%
recurrence ratio (prasterone / untreated VVA) ([2]; at least 180 days of supply): 0.78
recurrence of breast cancer compared to the untreated VVA group (in words) ([2]; at least one prescription filled, all ages and three age groups): significantly lower; also recorded: significant reduction of recurrence
recurrence of breast cancer compared to the untreated VVA groups (in words) [2, 6]: significant reduction

CC/C(=C(\c1ccccc1)c1ccc(OCCN(C)C)cc1)c1ccccc1 [Tamoxifen]
recurrence of breast intraepithelial neoplasia (in words) [3]: halve the recurrence of breast intraepithelial neoplasia

C[C@]12CC[C@H]3[C@@H](CCC4=CC(=O)CC[C@@]43C)[C@@H]1CC[C@@H]2O [testosterone]
breast cancer incidence (in words) [4]: reduction of the breast cancer incidence
